Assay results reported in patent EP0093643A1 (priority 1982, dated 1983).

What was measured:
[1] = system: sécrétion gastrique; test: Pentagastrin-stimulated gastric hypersecretion in dogs with a Heidenhain pouch; type: in vivo, chien; conditions: Canis lupus familiaris, po, voie orale, dog, pentagastrin infusion, dose reducing hourly acid output by 50 %, doses expressed as base, read-out: DE50 (the source's name)
Method: L'activité inhibitrice de la sécrétion gastrique du composé de l'exemple 1 a été comparée à celle du racémique correspondant à l'aide du test d'hypersécrétion gastrique stimulée par la pentagastrine chez le chien porteur d'une poche de Heidenhein.
Trois chiens "mongrels", porteurs d'une poche de Heidenhein, à jeun depuis 18 heures, reçoivent pendant 4 heures, par perfusion veineuse, […]/kg/heure de pentagastrine sous un volume de 30 ml/heure. La sécrétion de la poche est recueillie dans un flacon qui est changé toutes les 15 minutes. Une heure et demie après le début de la perfusion, le produit à étudier est administré par voie orale dans une gélule n° 000. La dose efficace 50 % (DE 50) eet la dose de produit qui diminue de 50 % le débit acide horaire enregistré pendant la 3ème ou 4ème heure de l'expérimentation par rapport au débit acide horaire enregistré lors de la deuxième heure do la perfusion.
Les résultats obtenus sont rassemblés dans le tableau ci-après, où les dosas sont exprimées en produit sous forme de base : […]

[2] = system: récepteurs muscariniques de l'acétylcholine; type: binding, rat; conditions: compared with quinupramine; from IC50 of 3H-QNB displacement

| Structure (SMILES) | ED50 [1] [mg/kg] | activity relative to the corresponding racemate [2] |
| --- | --- | --- |
| CN(C)S(=O)(=O)c1ccc2c(c1)N([C@@H]1CN3CCC1CC3)c1ccccc1S2 [Exemple 1, N,N-diméthyl [aza-1 bicyclo(2,2,2)octyl-3(S)] - 10 10 H-phénothiazinesulfonamide-2] | 0.7 | – |
| CN(C)S(=O)(=O)c1ccc2c(c1)N(C1CN3CCC1CC3)c1ccccc1S2 (racemic) [racémique correspondant, reference compound] | 1 | – |
| c1ccc2c(c1)CCc1ccccc1N2[C@@H]1CN2CCC1CC2 [Exemple 2, [aza-1 bicyclo(2,2,2)octyl-3 (S)]-5 dihydro-10,11 5H-dibenz (b,f) azépine] | – | deux fois plus actif |
